The source of these data is US20250034171A1, “IMIDAZOPYRIDINE AMIDES AND RELATED COMPOUNDS FOR USE IN THE TREATMENT OF BACTERIAL INFECTIONS” (priority 2021, published 2025).

≈ marks a conversion by molar mass, not a printed value. Like-named read-outs stand apart in the source and are kept apart here. A value given as a limit tells only on which side of the number the result lay.

The test system of the experiment is Mycobacterium tuberculosis strain H37Rv. Description: Test 2: MIC determination against M. tuberculosis, resazurin fluorescence. Type of experiment: cell-based. As to conditions: Test 2, M. tuberculosis H37Rv; for MIC90: read-out: Bacterial activity MIC90; for IC50: read-out: Bacterial activity pMIC50 (converted).
The mark [1] stands for this setting: Mycobacterium tuberculosis, H37RV.

`CCc1nc2n(c1C(=O)NCc1ccc(-c3nc4n(n3)CC[C@H](C(F)(F)F)C4)cc1)C[C@H](C)CC2` (single isomer, unassigned) [Compound 65]: under setting [1], the MIC90 came to 0.039 µM (≈ 0.019 µg/mL) and the IC50 was 13500 pM.
Consider `CCc1nc2n(c1C(=O)NCc1ccc(-c3nc4n(n3)CC[C@@H](C(F)(F)F)C4)cc1)CC[C@H](C)C2` (single isomer, unassigned) [Compound 66], for which, under setting [1], the MIC90 is 0.24 µM (≈ 0.117 µg/mL) and the IC50 is 51300 pM.
Turning to `CCc1nc2n(c1C(=O)NCc1ccc(-c3nc4n(n3)CC[C@H](C(F)(F)F)C4)cc1)CC[C@@H](C)C2` (single isomer, unassigned) [Compound 67], under setting [1], the MIC90 worked out at 0.18 µM (≈ 0.0876 µg/mL) and the IC50 is 40700 pM.
Consider `CCc1nc2n(c1C(=O)NCc1ccc(-c3nc4n(n3)CC[C@H](C(F)(F)F)C4)cc1)CC[C@H](C)C2` (single isomer, unassigned) [Compound 68], for which, under setting [1], the MIC90 amounted to 0.23 µM (≈ 0.112 µg/mL) and the IC50 is 47900 pM.
For the compound `CCc1nc2n(c1C(=O)NCc1ccc(-c3nc4n(n3)CC[C@H](C(F)(F)F)C4)cc1)C[C@@H](C)CC2` (single isomer, unassigned) [Compound 69], the “Bacterial activity pMIC50” value was determined as 7.95 and the MIC90 was 0.031 µM (≈ 0.0151 µg/mL).
On to `CCc1nc2n(c1C(=O)NCc1ccc(-c3nc4n(n3)CC[C@@H](C(F)(F)F)C4)cc1)CC[C@@H](C)C2` (single isomer, unassigned) [Compound 70], for which, under setting [1], the MIC90 came to 0.23 µM (≈ 0.112 µg/mL) and the IC50 is 56200 pM.
For `CCc1nc2n(c1C(=O)NCc1ccc(-c3nc4n(n3)CC[C@@H](C(F)(F)F)C4)cc1)C[C@H](C)CC2` (single isomer, unassigned) [Compound 71], in that order: 0.024 µM (≈ 0.0117 µg/mL) and 9550 pM.
As for `CCc1nc2n(c1C(=O)NCc1ccc(-c3nc4n(n3)CC[C@@H](C(F)(F)F)C4)cc1)C[C@@H](C)CC2` (single isomer, unassigned) [Compound 72], under setting [1], the MIC90 came out at 0.042 µM (≈ 0.0204 µg/mL) and the IC50 was 13800 pM.
As for `CCc1nc2n(c1C(=O)NCc1ccc(-c3nc4n(n3)CC[C@H](C(F)(F)F)C4)cc1)C[C@@H](C)CC2` (single isomer, unassigned) [Compound 75], the “Bacterial activity pMIC50” value is 7.48 and the MIC90 was 0.086 µM (≈ 0.0418 µg/mL).
For `CCc1nc2n(c1C(=O)NCc1ccc(-c3nc4n(n3)CC[C@@H](C(F)(F)F)C4)c(F)c1)CCCC2` (single isomer, unassigned) [Compound 76], in that order: 7.55 and 0.09 µM (≈ 0.0441 µg/mL).
In the case of `CCc1nc2ccccn2c1C(=O)NCc1ccc(-c2nc3n(n2)CC[C@@H](C(F)(F)F)C3)c(F)c1` (single isomer, unassigned) [Compound 78], the “Bacterial activity pMIC50” value came to 8.08 and the MIC90 came to 0.028 µM (≈ 0.0136 µg/mL).
Consider `CCc1nc2ccccn2c1C(=O)NCc1ccc(-c2nc3n(n2)CC[C@H](C(F)(F)F)C3)c(F)c1` (single isomer, unassigned) [Compound 79], for which the “Bacterial activity pMIC50” value is listed as 7.99 and the MIC90 turned out to be 0.035 µM (≈ 0.017 µg/mL).
`CCc1nn2c(c1C(=O)NCc1ccc(-c3nc4n(n3)CC[C@H](C(F)(F)F)C4)cc1)C[C@H](C)CC2` (single isomer, unassigned) [Compound 81]: under setting [1], the MIC90 came to 0.19 µM (≈ 0.0924 µg/mL) and the IC50 is 57500 pM.
With `CCc1nn2c(c1C(=O)NCc1ccc(-c3nc4n(n3)CC[C@@H](C(F)(F)F)C4)cc1)C[C@@H](C)CC2` (single isomer, unassigned) [Compound 82], under setting [1], the MIC90 is 0.087 µM (≈ 0.0423 µg/mL) and the IC50 is 30900 pM.
For the compound `CCc1nn2c(c1C(=O)NCc1ccc(-c3nc4n(n3)CC[C@@H](C(F)(F)F)C4)cc1)C[C@H](C)CC2` (single isomer, unassigned) [Compound 83], under setting [1], the MIC90 stood at 0.23 µM (≈ 0.112 µg/mL) and the IC50 is 63100 pM.
For the compound `CCc1nc2ncc(C)cn2c1C(=O)NCc1ccc(-c2nc3n(n2)CCC(C)C3)cc1` (single isomer, unassigned) [Compound 94], the “Bacterial activity pMIC50” value was 7.86 and the MIC90 was 0.039 µM (≈ 0.0168 µg/mL).
In the case of `CCc1nc2ncc(C)cn2c1C(=O)NCc1ccc(-c2nc3n(n2)CC[C@@H](C(C)(F)F)C3)cc1` (single isomer, unassigned) [Compound 104], the “Bacterial activity pMIC50” value is 8.25 and the MIC90 was found to be 0.015 µM (≈ 0.00719 µg/mL).
Regarding `CCc1nc2ncc(C)cn2c1C(=O)NCc1ccc(-c2nc3n(n2)CC[C@H](C(C)(F)F)C3)cc1` (single isomer, unassigned) [Compound 105], the “Bacterial activity pMIC50” value is reported as 8.24 and the MIC90 is given as 0.014 µM (≈ 0.00671 µg/mL).
As to `CCc1nc2ncc(C)cn2c1C(=O)NCc1ccc(-c2cn3c(n2)CC(COC)CC3)cc1` (single isomer, unassigned) [Compound 118], the “Bacterial activity pMIC50” value was found to be 7.48 and the MIC90 worked out at 0.083 µM (≈ 0.0381 µg/mL).
For the compound `CCc1nc2n(c1C(=O)NCc1ccc(-c3nc4n(n3)CC[C@H](C(F)(F)F)C4)cc1)CC[C@@H](O)C2` (single isomer, unassigned) [Compound 131], under setting [1], the MIC90 was > 0.5 µM and the IC50 was > 501000 pM.
In the case of `CCc1nc2n(c1C(=O)NCc1ccc(-c3nc4n(n3)CC[C@H](C(F)(F)F)C4)cc1)CC[C@H](O)C2` (single isomer, unassigned) [Compound 132], under setting [1], the MIC90 is > 0.45 µM and the IC50 is > 269000 pM.
On to `CCc1nc2n(c1C(=O)NCc1ccc(-c3nc4n(n3)CC[C@H](C(F)(F)F)C4)cc1)CC[C@H](OC)C2` (single isomer, unassigned) [Compound 135], for which, under setting [1], the MIC90 was > 0.44 µM and the IC50 is > 224000 pM.
For `CCc1nc2n(c1C(=O)NCc1ccc(-c3nc4n(n3)CC[C@H](C(F)(F)F)C4)cc1)CC[C@@H](C(F)(F)F)C2` (single isomer, unassigned) [Compound 136], in that order: > 0.5 µM and > 501000 pM.
Turning to `CCc1nc2n(c1C(=O)NCc1ccc(-c3nc4n(n3)CC[C@H](C(F)(F)F)C4)cc1)CC[C@H](C(F)(F)F)C2` (single isomer, unassigned) [Compound 137], under setting [1], the MIC90 was > 0.5 µM and the IC50 was > 501000 pM.
As to `CCc1nc2n(c1C(=O)NCc1ccc(-c3nc4n(n3)CC[C@H](C(F)(F)F)C4)cc1)CC[C@@H](OC)C2` (single isomer, unassigned) [Compound 139], under setting [1], the MIC90 is > 0.45 µM and the IC50 was > 182000 pM.
For `CCc1nc2ncc(C(F)(F)F)cn2c1C(=O)NCc1ccc(-c2nc3n(n2)CC[C@H](C)C3)cc1` (single isomer, unassigned) [Compound 191], in that order: > 0.5 µM and > 501000 pM.
As for `CCc1nc2ncc(C)cn2c1C(=O)NCc1ccc(-c2nc3n(n2)CCC(C(F)(F)F)C3)nn1` (stereo not drawn) [Compound 41], under setting [1], the MIC90 is > 0.5 µM and the IC50 was > 501000 pM.
For `CCc1nc2ncc(C)cn2c1C(=O)NCc1ccc(-c2nc3n(n2)CCC(C(F)(F)F)C3)nc1` (stereo not drawn) [Compound 43], under setting [1], the MIC90 amounted to 0.37 µM (≈ 0.179 µg/mL) and the IC50 was 155000 pM.
For `CCc1nc2ncc(C)cn2c1C(=O)NCc1cc(C)c(-c2nc3n(n2)CCC(C(F)(F)F)C3)c(F)c1` (stereo not drawn) [Compound 44], under setting [1], the MIC90 came to 0.21 µM (≈ 0.108 µg/mL) and the IC50 is 45700 pM.
For `CCc1nc2ncc(C)cn2c1C(=O)NCc1cnc(-c2nc3n(n2)CCC(C(F)(F)F)C3)c(F)c1` (stereo not drawn) [Compound 45], in that order: 1.05 µM (≈ 0.528 µg/mL) and 245000 pM.
